{
  "source": "patent US20210379210A1",
  "about": "“RADIOLIGANDS FOR IMAGING THE LPA1 RECEPTOR” (BRISTOL-MYERS SQUIBB COMPANY, priority 2018, published 2021)",
  "key": {"LPA1": {"test_system": "LPA1", "assay": "In-vivo PET imaging in cynomolgus monkeys, lung SUV and % displacement", "design": "species or system cynomolgus monkey", "details": "healthy cynomolgus monkeys, listed as [^18F]-(1S,3S)-3-(6-(5-((((4-(fluoro)butyl)(methyl)carbamoyl)oxy)methyl)-1-meth))", "method": "[^18F]-(1S,3S)-3-((6-(5-((((4-(fluoro)butyl)(methyl)carbamoyl)oxy)methyl)-1-methyl-1H-1,2,3-triazol-4-yl)-2-methylpyridin-3-yl)oxy)cyclohexane-1-carboxylic acid was tested as an LPA1 PET radioligand to validate the target engagement of LPA1 antagonist used in normal healthy cynomolgus monkeys and to support future clinical use of this agent as a PET radioligand. In this experiment, the specific binding to LPA1, PET imaging in normal healthy cynomolgus monkeys (n=3) was performed. PET images were acquired at baseline and again at after oral administration of an LPA1 antagonist (3, 10, and 30 mg/kg) or vehicle solution (0.5% Methocel A4M: 0.1% Tween 80 (Polysorbate 80): 99.4% Water) only. The oral dosing time of LPA1 antagonist or vehicle was 3 hours prior to [^18F]-labeled antagonist injection. Cynomolgus monkeys on study were fasted beginning the morning of the imaging day. Veterinary Scientists induced initial anesthesia pre-op cocktail of 0.02 mg/kg Atropine, and 5 mg/kg Telazol, 0.1 mg/kg Hydromorphone IM. […] Vital signs were continuously monitored throughout the imaging study. […] After returning to a conscious state, the monkey was transferred to an isolation room with food and water until the radioactivity was decayed to background levels. […]"}, "[1]": {"assay": "Radio-metabolism, fraction intact post-injection", "format": "in vivo", "details": "at the 90 minute post-injection"}},
  "note": "Several values for one entry are separate records, joined by “and”; a condition that tells them apart may be missing. Identical values can stand only once.",
  "data": [
    {"smiles": "Cc1nc(-c2nnn(C)c2COC(=O)N(C)CCCC[18F])ccc1O[C@H]1CCC[C@H](C(=O)O)C1", "note": "[Example 16]", "values": [
      {"measurement": "SUV in Lung (60-90 min)", "setting": "LPA1; individual baseline scans", "result": "0.307 and 0.428 and 0.333 and 0.273 and 0.356 and 0.379 and 0.403 and 0.459"},
      {"measurement": "average SUV at baseline for individual animals", "setting": "LPA1; lung, mean of baseline scans per animal", "result": "0.398 and 0.321 and 0.391"},
      {"measurement": "radio-metabolism, intact", "setting": "[1]", "result": 80, "unit": "%"}
    ]}
  ]
}
